ChEMBL document CHEMBL5614437, “Antibacterial and Anti-Inflammatory Activity of Branched Peptides Derived from Natural Host Defense Sequences” (J Med Chem, 2024)
≈ marks a conversion by molar mass, not a printed value. Values belong to the compound of their own block, whether it stands above or below them. Calls of active or inactive are those of the source. The calls are words filed in the database; no cut-off is given here. Where a SMILES comes first, the peptide text is derived from it. Bridges are numbered along the chain shown (N, C = ends). Roman numbers before positions name the chains, in order.

Columns and labels:
[1] = tested on: Escherichia coli; assay: Antibacterial activity against Escherichia coli TG1 incubated for 12 hrs by microdilution method; assay type: functional
[2] = tested on: Escherichia coli; assay: Antibacterial activity against Escherichia coli clinical isolate LC711/14 incubated for 12 hrs by microdilution method; assay type: functional
[3] = tested on: Pseudomonas aeruginosa; assay: Antibacterial activity against Pseudomonas aeruginosa ATCC 27853 incubated for 12 hrs by microdilution method; assay type: functional
[4] = tested on: Staphylococcus aureus; assay: Antibacterial activity against Staphylococcus aureus USA300 incubated for 12 hrs by microdilution method; assay type: functional
[5] = tested on: Klebsiella pneumoniae; assay: Antibacterial activity against Klebsiella pneumoniae ATCC43816 incubated for 12 hrs by microdilution method; assay type: functional
[6] = tested on: Klebsiella pneumoniae; assay: Antibacterial activity against colistin-resistant Klebsiella pneumoniae incubated for 12 hrs by microdilution method; assay type: functional
[7] = tested on: Erythrocyte; assay: Hemolytic activity in human RBC assessed as hemolysis at ~15 uM incubated for 2 hrs by absorbance based plate reader analysis; assay type: toxicity, cell-based
[8] = tested on: Enterococcus faecalis; assay: Antibacterial activity against Enterococcus faecalis 51299 incubated for 12 hrs by microdilution method; assay type: functional
[9] = Stability of compound in human serum at 180 uM measured after 4 hrs by HPLC-MS analysis; assay type: ADME, cell-free
[10] = Stability of compound in human serum at 180 uM measured after 24 hrs by HPLC-MS analysis; assay type: ADME, cell-free
[11] = tested on: Erythrocyte; assay: Hemolytic activity in human RBC assessed as hemolysis at […] incubated for 2 hrs by absorbance based plate reader analysis; assay type: toxicity, cell-based
[12] = tested on: Cell membrane; assay: Induction of cytoplasmic membrane permeabilization in Escherichia coli TG1 assessed as wrinkling of membrane surface at 2 times of MIC measured after 30 to 60 mins by SEM analysis; conditions: time 30-60 min
[13] = tested on: Escherichia coli; assay: Antibiofilm activity against 24 hrs preformed biofilm in Escherichia coli TG1 assessed as reduction in preformed biofilm incubated for 14 hrs by absorbance based analysis; assay type: functional
[14] = tested on: Erythrocyte; assay: Hemolytic activity in human RBC assessed as hemolysis at 10 times of MIC incubated for 2 hrs by absorbance based plate reader analysis; assay type: toxicity, cell-based
[15] = tested on: Escherichia coli; assay: Antibiofilm activity against Escherichia coli TG1 assessed as inhibition of biofilm formation incubated for 24 hrs by absorbance based analysis; assay type: functional
[16] = tested on: Cell membrane; assay: Induction of cytoplasmic membrane permeabilization in Escherichia coli TG1 assessed as increase in fluorescence incubated for 100 to 120 mins by PI/Sytox green dye based analysis; conditions: dose 1.5-3 µM, time 100-120 min
[17] = tested on: Klebsiella pneumoniae; assay: Antibiofilm activity against 24 hrs preformed biofilm in Klebsiella pneumoniae ATCC43816 assessed as reduction in preformed biofilm incubated for 14 hrs by absorbance based analysis; assay type: functional
[18] = tested on: Lipopolysaccharide (LPS); assay: Binding affinity to biotin-tagged LPS (unknown origin) preincubated for 30 mins followed by compound addition and 30 mins of incubation with streptavidin-POD by ELISA based microplate spectrophotometer; assay type: subcellular; conditions: dose 1-10 µg/ml
[19] = tested on: Cell membrane; assay: Induction of cytoplasmic membrane permeabilization in Escherichia coli TG1 assessed as increase in fluorescence at 2 times of MIC measured after 10 mins by PI/Sytox green dye based analysis; assay type: cell membranes
[20] = tested on: Cell membrane; assay: Induction of cytoplasmic membrane permeabilization in Escherichia coli TG1 assessed as loss of surface smoothness at 2 times of MIC measured after 30 to 60 mins by SEM analysis; conditions: time 30-60 min
[21] = tested on: RAW264.7; assay: Cytotoxicity against mouse RAW264.7 cells assessed as cell killing at 200 uM incubated for 4 to 24 hrs by crystal violet staining based analysis relative to control; assay type: toxicity; conditions: raw264.7, 200 µM, time 4-24 hrs
[22] = tested on: Klebsiella pneumoniae; assay: Antibiofilm activity against Klebsiella pneumoniae ATCC43816 assessed as inhibition of biofilm formation incubated for 24 hrs by absorbance based analysis; assay type: functional
[23] = tested on: Cell membrane; assay: Induction of cytoplasmic membrane permeabilization in Escherichia coli TG1 assessed as increase in fluorescence at MIC measured after 40 to 50 mins by PI/Sytox green dye based analysis; conditions: time 40-50 min
[24] = tested on: Cell membrane; assay: Induction of cytoplasmic membrane permeabilization in Escherichia coli TG1 assessed as enlargement of bacterial cells at 2 times of MIC measured after 30 to 60 mins by SEM analysis; assay type: cell membranes; conditions: time 30-60 min

Compound: CC[C@H](C)[C@H](N)C(=O)N[C@@H](CC(N)=O)C(=O)N[C@@H](CC(C)C)C(=O)N[C@@H](CCCCN)C(=O)N[C@@H](CCCCN)C(=O)N[C@@H](CC(C)C)C(=O)N[C@@H](C)C(=O)N[C@@H](CCCCN)C(=O)N[C@@H](CC(C)C)C(=O)NCCCC[C@H](NC(=O)[C@H](CC(C)C)NC(=O)[C@H](CCCCN)NC(=O)[C@H](C)NC(=O)[C@H](CC(C)C)NC(=O)[C@H](CCCCN)NC(=O)[C@H](CCCCN)NC(=O)[C@H](CC(C)C)NC(=O)[C@H](CC(N)=O)NC(=O)[C@@H](N)[C@@H](C)CC)C(=O)NCCCC[C@H](NC(=O)[C@H](CCCCNC(=O)[C@H](CC(C)C)NC(=O)[C@H](CCCCN)NC(=O)[C@H](C)NC(=O)[C@H](CC(C)C)NC(=O)[C@H](CCCCN)NC(=O)[C@H](CCCCN)NC(=O)[C@H](CC(C)C)NC(=O)[C@H](CC(N)=O)NC(=O)[C@@H](N)[C@@H](C)CC)NC(=O)[C@H](CC(C)C)NC(=O)[C@H](CCCCN)NC(=O)[C@H](C)NC(=O)[C@H](CC(C)C)NC(=O)[C@H](CCCCN)NC(=O)[C@H](CCCCN)NC(=O)[C@H](CC(C)C)NC(=O)[C@H](CC(N)=O)NC(=O)[C@@H](N)[C@@H](C)CC)C(N)=O
- MIC [2]: 6 µM (≈ 26.9 µg/mL)
- MIC [3]: 3 µM (≈ 13.5 µg/mL)
- MIC [4]: > 25 µM
- MIC [1]: 0.7 µM (≈ 3.14 µg/mL)
- MIC [5]: 12 µM (≈ 53.9 µg/mL)
- MIC [6]: 6 µM (≈ 26.9 µg/mL)
- Activity [7]: Toxic
- MIC [8]: > 25 µM

Compound: H-KKLLGKNWKLM-OH
- Stability [9]: Unstable
- Stability [10]: Unstable

Compound: I: H-ALLKRIKTLLKK-NH2 / II: H-ALLKRIKTLLK / III: H-ALLKRIKTLL / IV: H-ALLKRIKTLL (amide I:11-IV:C, I:12-II:C, II:11-III:C)
- MIC [1]: 25 µM

Compound: I: H-GIIDIAKKLFESWKK-NH2 / II: H-GIIDIAKKLFESWK / III: H-GIIDIAKKLFESW / IV: H-GIIDIAKKLFESW (amide I:14-IV:C, I:15-II:C, II:14-III:C)
- MIC [1]: 12.5 µM

Compound: I: H-INLKAIAALAKKLLKK-NH2 / II: H-INLKAIAALAKKLLK / III: H-INLKAIAALAKKLL / IV: H-INLKAIAALAKKLL (amide I:15-IV:C, I:16-II:C, II:15-III:C)
- MIC [1]: 12.5 µM

Compound: I: H-KLLKRIKTLLKK-NH2 / II: H-KLLKRIKTLLK / III: H-KLLKRIKTLL / IV: H-KLLKRIKTLL (amide I:11-IV:C, I:12-II:C, II:11-III:C)
- MIC [2]: 6 µM
- Activity [11]: Toxic
- MIC [3]: 6 µM
- MIC [4]: 3 µM
- MIC [1]: 6 µM
- MIC [5]: 6 µM
- MIC [6]: 12.5 µM
- MIC [8]: 25 µM

Compound: I: H-LLKKVLKAAAKKK-NH2 / II: H-LLKKVLKAAAKK / III: H-LLKKVLKAAAK / IV: H-LLKKVLKAAAK (amide I:12-IV:C, I:13-II:C, II:12-III:C)
- Activity [12]: Active
- MIC [2]: 6 µM
- MBIC80 [13]: 50 µM
- MIC [3]: 6 µM
- Stability [9]: Stable
- Activity [14]: Non-Toxic
- IC20 [15]: 6 µM
- MIC [4]: > 25 µM
- MIC [1]: 1.5 µM
- MIC [5]: 12.5 µM
- Activity [16]: Dose-Dependent Effect
- MBIC80 [17]: 50 µM
- Activity [18]: Dose-Dependent Effect
- Activity [19]: Active
- Activity [20]: Active
- Activity [21]: 100%
- IC20 [22]: > 50 µM
- MIC [6]: > 25 µM
- MIC [8]: > 25 µM
- Activity [23]: Active
- Stability [10]: Stable
- Activity [24]: Active

The remaining lines, values ahead:

- MIC [1]: 12.5 µM (≈ 57.6 µg/mL)
Compound: CC[C@H](C)[C@H](NC(=O)[C@H](CO)NC(=O)[C@H](CCCCN)NC(=O)[C@H](CC(C)C)NC(=O)[C@H](CCCCN)NC(=O)[C@@H](N)CC(C)C)C(=O)N[C@H](C(=O)N[C@@H](CO)C(=O)N[C@@H](Cc1c[nH]c2ccccc12)C(=O)NCCCC[C@@H]1NC(=O)[C@H](Cc2c[nH]c3ccccc23)NC(=O)[C@H](CO)NC(=O)[C@@H](NC(=O)[C@@H](NC(=O)[C@H](CO)NC(=O)[C@H](CCCCN)NC(=O)[C@H](CC(C)C)NC(=O)[C@H](CCCCN)NC(=O)[C@@H](N)CC(C)C)[C@@H](C)CC)C(C)NCCCC[C@H](NC(=O)[C@H](CC(C)C)NC(=O)[C@H](CCCCN)NC(=O)[C@@H](N)CC(C)C)C(=O)N[C@@H](CO)C(=O)N[C@@H]([C@@H](C)CC)C(=O)N[C@@H](C(C)C)C(=O)N[C@@H](CO)C(=O)N[C@@H](Cc2c[nH]c3ccccc23)C(=O)NCCCC[C@H](NC(=O)[C@H](Cc2c[nH]c3ccccc23)NC(=O)[C@H](CO)NC(=O)[C@@H](NC(=O)[C@@H](NC(=O)[C@H](CO)NC(=O)[C@H](CCCCN)NC(=O)[C@H](CC(C)C)NC(=O)[C@H](CCCCN)NC(=O)[C@@H](N)CC(C)C)[C@@H](C)CC)C(C)C)C(=O)N[C@H](C(N)=O)CCCCNC1=O)C(C)C (stereo partly specified)

- MIC [1]: 25 µM (≈ 114 µg/mL)
Compound: CC(C)C[C@H](NC(=O)[C@@H](NC(=O)[C@@H](NC(=O)[C@@H](N)CO)[C@@H](C)O)C(C)C)C(=O)N[C@H](C(=O)N[C@@H](CO)C(=O)N[C@@H](CCCCN)C(=O)N[C@@H](Cc1ccc(O)cc1)C(=O)N[C@@H](CCCNC(=N)N)C(=O)NCCCC[C@H](NC(=O)[C@H](CCCNC(=N)N)NC(=O)[C@H](Cc1ccc(O)cc1)NC(=O)[C@H](CCCCN)NC(=O)[C@H](CO)NC(=O)[C@@H](NC(=O)[C@H](CC(C)C)NC(=O)[C@@H](NC(=O)[C@@H](NC(=O)[C@@H](N)CO)[C@@H](C)O)C(C)C)[C@@H](C)O)C(=O)NCCCC[C@H](NC(=O)[C@H](CCCCNC(=O)[C@H](CCCNC(=N)N)NC(=O)[C@H](Cc1ccc(O)cc1)NC(=O)[C@H](CCCCN)NC(=O)[C@H](CO)NC(=O)[C@@H](NC(=O)[C@H](CC(C)C)NC(=O)[C@@H](NC(=O)[C@@H](NC(=O)[C@@H](N)CO)[C@@H](C)O)C(C)C)[C@@H](C)O)NC(=O)[C@H](CCCNC(=N)N)NC(=O)[C@H](Cc1ccc(O)cc1)NC(=O)[C@H](CCCCN)NC(=O)[C@H](CO)NC(=O)[C@@H](NC(=O)[C@H](CC(C)C)NC(=O)[C@@H](NC(=O)[C@@H](NC(=O)[C@@H](N)CO)[C@@H](C)O)C(C)C)[C@@H](C)O)C(N)=O)[C@@H](C)O (HELM PEPTIDE1{S.T.V.L.T.S.K.Y.R.K.K.[am]}|PEPTIDE2{S.T.V.L.T.S.K.Y.R.K}|PEPTIDE3{S.T.V.L.T.S.K.Y.R}|PEPTIDE4{S.T.V.L.T.S.K.Y.R}$PEPTIDE1,PEPTIDE4,10:R3-9:R2|PEPTIDE1,PEPTIDE2,11:R3-10:R2|PEPTIDE2,PEPTIDE3,10:R3-9:R2$$$V2.0)

- Stability [9]: Stable
- Stability [10]: Unstable
Compound: H-GRFKRFRKKL-OH

- Stability [9]: Unstable
- Stability [10]: Unstable
Compound: H-LLKKVLKAAAK-OH

- Stability [9]: Stable
- Stability [10]: Unstable
Compound: H-TLLKKVLKAAAK-OH

- MIC [1]: 12.5 µM
Compound: I: H-KLLKFIKTLLKK-NH2 / II: H-KLLKFIKTLLK / III: H-KLLKFIKTLL / IV: H-KLLKFIKTLL (amide I:11-IV:C, I:12-II:C, II:11-III:C)

- MIC [1]: 12.5 µM
Compound: I: H-KRLWHKVGPFKK-NH2 / II: H-KRLWHKVGPFK / III: H-KRLWHKVGPF / IV: H-KRLWHKVGPF (amide I:11-IV:C, I:12-II:C, II:11-III:C)

- MIC [1]: 12.5 µM
Compound: I: H-LSAAHRLAIGRRKK-NH2 / II: H-LSAAHRLAIGRRK / III: H-LSAAHRLAIGRR / IV: H-LSAAHRLAIGRR (amide I:13-IV:C, I:14-II:C, II:13-III:C)

- MIC [1]: 25 µM
Compound: I: H-LSAAHSLAIGRRKK-NH2 / II: H-LSAAHSLAIGRRK / III: H-LSAAHSLAIGRR / IV: H-LSAAHSLAIGRR (amide I:13-IV:C, I:14-II:C, II:13-III:C)

- MIC [1]: 12.5 µM
Compound: I: H-LSAARSLAIGRRKK-NH2 / II: H-LSAARSLAIGRRK / III: H-LSAARSLAIGRR / IV: H-LSAARSLAIGRR (amide I:13-IV:C, I:14-II:C, II:13-III:C)
